Laboratory results: ChEMBL document CHEMBL5523759, “Discovery of Novel HDAC3 Inhibitors with PD-L1 Downregulating/Degrading and Antitumor Immune Effects” (J Med Chem, 2024)
One block for each compound: values may come before it.

Tests used:
Jurkat = assay: Antiproliferative activity against human Jurkat T cells assessed as reduction in cell viability measured for 48 hrs by CCK-8 assay; format: functional, cell-based
B16-F10 = assay: Antiproliferative activity against mouse B16-F10 cells assessed as reduction in cell viability measured for 48 hrs by MTT assay; format: functional, cell-based; conditions: B16-F10, 48 h
HepG2 = assay: Antiproliferative activity against human HepG2 cells assessed as reduction in cell viability measured for 48 hrs by MTT assay; format: functional, cell-based; conditions: HepG2, 48 h
Histone deacetylase 1 = Histone deacetylase 1 (Homo sapiens, UniProt Q13547); assay: Inhibition of human recombinant HDAC1 using Ac-Leu-Gly-Lys (Ac)-AMC as substrate preincubated with compound for 10 mins followed by substrate addition and measured after 45 mins by TECAN microtiter plate reader analysis
Histone deacetylase 3 = Histone deacetylase 3 (Homo sapiens, UniProt O15379); assay: Inhibition of human recombinant HDAC3 using Ac-Leu-Gly-Lys (Ac)-AMC as substrate preincubated with compound for 10 mins followed by substrate addition and measured after 45 mins by TECAN microtiter plate reader analysis
[1] = target: T1, Protein deacetylase HDAC6 (Homo sapiens, UniProt Q9UBN7); assay: Inhibition of human recombinant HDAC6 using Ac-Leu-Gly-Lys (Ac)-AMC as substrate preincubated with compound for 10 mins followed by substrate addition and measured after 45 mins by TECAN microtiter plate reader analysis
T1 sequence (Q9UBN7 whole entry): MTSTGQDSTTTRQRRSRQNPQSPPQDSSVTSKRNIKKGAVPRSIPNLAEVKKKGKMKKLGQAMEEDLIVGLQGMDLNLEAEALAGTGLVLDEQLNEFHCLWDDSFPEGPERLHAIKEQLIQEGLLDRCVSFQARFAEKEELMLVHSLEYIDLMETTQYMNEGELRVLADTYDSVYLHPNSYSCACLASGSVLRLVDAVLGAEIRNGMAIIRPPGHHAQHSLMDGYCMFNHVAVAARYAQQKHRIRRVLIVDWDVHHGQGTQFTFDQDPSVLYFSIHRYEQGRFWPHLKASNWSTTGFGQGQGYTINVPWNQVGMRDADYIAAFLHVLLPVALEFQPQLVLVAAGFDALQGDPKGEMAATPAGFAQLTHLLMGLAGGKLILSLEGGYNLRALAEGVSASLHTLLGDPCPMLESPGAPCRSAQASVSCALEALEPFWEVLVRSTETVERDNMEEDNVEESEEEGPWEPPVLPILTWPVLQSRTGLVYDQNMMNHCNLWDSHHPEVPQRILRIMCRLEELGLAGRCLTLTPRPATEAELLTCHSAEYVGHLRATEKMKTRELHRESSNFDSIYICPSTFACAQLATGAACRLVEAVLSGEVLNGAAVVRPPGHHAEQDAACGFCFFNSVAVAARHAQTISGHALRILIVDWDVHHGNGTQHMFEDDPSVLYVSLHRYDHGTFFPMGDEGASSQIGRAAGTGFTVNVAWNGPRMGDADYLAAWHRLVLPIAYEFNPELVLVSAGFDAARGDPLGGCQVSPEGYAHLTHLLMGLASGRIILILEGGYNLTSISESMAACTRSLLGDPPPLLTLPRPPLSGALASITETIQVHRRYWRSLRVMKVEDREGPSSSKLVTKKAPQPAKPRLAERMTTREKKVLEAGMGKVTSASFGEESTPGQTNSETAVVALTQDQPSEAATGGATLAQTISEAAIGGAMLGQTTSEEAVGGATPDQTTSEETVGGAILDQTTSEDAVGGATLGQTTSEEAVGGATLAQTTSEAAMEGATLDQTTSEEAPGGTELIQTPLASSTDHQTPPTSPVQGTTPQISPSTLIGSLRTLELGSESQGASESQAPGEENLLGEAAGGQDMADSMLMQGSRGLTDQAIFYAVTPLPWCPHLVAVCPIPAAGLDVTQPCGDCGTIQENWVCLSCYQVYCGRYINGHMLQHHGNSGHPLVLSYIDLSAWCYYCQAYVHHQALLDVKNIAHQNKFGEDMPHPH

Histone deacetylase 7 = target: T2, Histone deacetylase 7 (Homo sapiens, UniProt Q8WUI4); assay: Inhibition of human recombinant HDAC7 using Ac-Leu-Gly-Lys (Tfa)-AMC as substrate preincubated with compound for 10 mins followed by substrate addition and measured after 45 mins by TECAN microtiter plate reader analysis
T2 sequence (Q8WUI4 whole entry): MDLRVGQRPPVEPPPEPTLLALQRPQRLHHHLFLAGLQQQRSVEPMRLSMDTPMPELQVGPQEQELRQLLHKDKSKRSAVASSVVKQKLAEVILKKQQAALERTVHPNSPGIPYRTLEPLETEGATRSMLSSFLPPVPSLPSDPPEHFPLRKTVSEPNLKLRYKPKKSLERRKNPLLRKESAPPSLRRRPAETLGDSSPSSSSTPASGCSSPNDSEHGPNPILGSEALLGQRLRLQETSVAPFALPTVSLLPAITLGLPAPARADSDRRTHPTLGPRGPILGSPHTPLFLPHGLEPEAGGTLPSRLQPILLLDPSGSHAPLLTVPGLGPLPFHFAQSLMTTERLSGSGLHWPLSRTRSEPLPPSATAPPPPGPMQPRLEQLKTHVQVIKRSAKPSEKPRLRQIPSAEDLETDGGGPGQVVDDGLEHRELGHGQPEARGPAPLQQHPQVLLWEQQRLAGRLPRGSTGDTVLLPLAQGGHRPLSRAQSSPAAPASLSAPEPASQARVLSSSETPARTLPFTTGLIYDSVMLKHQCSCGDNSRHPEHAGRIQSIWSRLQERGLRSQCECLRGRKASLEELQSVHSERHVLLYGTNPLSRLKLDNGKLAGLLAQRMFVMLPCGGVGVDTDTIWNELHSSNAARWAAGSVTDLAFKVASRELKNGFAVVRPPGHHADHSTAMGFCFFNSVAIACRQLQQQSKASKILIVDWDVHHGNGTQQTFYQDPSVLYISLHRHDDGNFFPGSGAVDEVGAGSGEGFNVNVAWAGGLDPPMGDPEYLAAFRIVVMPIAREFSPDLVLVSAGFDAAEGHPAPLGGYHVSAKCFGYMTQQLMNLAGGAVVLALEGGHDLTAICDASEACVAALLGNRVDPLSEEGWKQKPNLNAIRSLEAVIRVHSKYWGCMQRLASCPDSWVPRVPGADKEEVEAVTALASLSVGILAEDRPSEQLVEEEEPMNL

Histone deacetylase 8 = target: T3, Histone deacetylase 8 (Homo sapiens, UniProt Q9BY41); assay: Inhibition of human recombinant HDAC8 using Ac-Leu-Gly-Lys (Tfa)-AMC as substrate preincubated with compound for 10 mins followed by substrate addition and measured after 45 mins by TECAN microtiter plate reader analysis
T3 sequence (Q9BY41 whole entry): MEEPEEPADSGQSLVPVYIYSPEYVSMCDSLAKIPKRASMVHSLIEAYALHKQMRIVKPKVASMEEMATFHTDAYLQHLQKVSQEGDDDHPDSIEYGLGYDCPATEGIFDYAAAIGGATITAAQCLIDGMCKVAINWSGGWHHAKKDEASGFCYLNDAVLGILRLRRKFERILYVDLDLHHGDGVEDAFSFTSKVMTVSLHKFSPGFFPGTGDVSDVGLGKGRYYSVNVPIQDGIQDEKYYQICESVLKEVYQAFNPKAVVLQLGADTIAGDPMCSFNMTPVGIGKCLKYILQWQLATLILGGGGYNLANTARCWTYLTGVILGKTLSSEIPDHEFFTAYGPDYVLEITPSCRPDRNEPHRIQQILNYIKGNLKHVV

HCT-116 = assay: cells; conditions: Homo sapiens, HCT-116, 48 h
Description: Antiproliferative activity against human HCT-116 cells assessed as reduction in cell viability measured for 48 hrs by MTT assay

MCF7 = assay: cells; conditions: Homo sapiens, MCF7, 48 h
Description: Antiproliferative activity against human MCF7 cells assessed as reduction in cell viability measured for 48 hrs by MTT assay

Histone deacetylase 3, sequence (O15379 whole entry): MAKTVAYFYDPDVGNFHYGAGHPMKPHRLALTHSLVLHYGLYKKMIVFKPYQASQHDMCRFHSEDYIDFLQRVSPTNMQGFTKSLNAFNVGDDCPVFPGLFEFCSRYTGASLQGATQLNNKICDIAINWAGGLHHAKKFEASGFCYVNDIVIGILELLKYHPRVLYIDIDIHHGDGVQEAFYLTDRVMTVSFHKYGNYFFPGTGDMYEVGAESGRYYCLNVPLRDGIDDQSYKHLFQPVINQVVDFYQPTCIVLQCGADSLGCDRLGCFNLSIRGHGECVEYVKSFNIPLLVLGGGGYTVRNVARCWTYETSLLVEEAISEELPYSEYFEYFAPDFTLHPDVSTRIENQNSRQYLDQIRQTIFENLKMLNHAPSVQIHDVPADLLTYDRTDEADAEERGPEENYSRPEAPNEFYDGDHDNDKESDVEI
Histone deacetylase 1, sequence (Q13547 whole entry): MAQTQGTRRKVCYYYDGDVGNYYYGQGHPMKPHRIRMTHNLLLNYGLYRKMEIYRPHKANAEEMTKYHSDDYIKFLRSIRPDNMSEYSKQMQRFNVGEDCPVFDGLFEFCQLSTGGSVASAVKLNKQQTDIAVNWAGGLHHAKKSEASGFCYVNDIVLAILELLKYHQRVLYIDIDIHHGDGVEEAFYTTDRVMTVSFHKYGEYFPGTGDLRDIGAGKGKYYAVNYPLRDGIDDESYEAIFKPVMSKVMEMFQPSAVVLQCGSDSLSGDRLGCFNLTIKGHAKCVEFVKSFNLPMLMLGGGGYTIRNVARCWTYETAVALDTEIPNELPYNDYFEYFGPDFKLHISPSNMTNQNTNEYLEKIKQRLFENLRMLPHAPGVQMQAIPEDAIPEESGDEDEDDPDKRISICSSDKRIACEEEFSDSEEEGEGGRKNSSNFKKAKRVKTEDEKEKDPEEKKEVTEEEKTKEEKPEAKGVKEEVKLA

SMILES: CCCNNC(=O)CCCCCNC(=O)c1ncc(CNc2ccccc2)s1
- IC50 (Jurkat): > 10000 nM

SMILES: Nc1ccccc1NC(=O)CCCNC(=O)c1ncc(CNc2ccccc2)s1
- IC50 (Jurkat): 560 nM

SMILES: Nc1ccccc1NC(=O)CCCCCNC(=O)c1ncc(CNc2ccccc2)s1
- IC50 (Jurkat): 1060 nM

SMILES: Nc1ccccc1NC(=O)CCC(=O)Nc1ccc(-c2ncc(CNc3ccccc3)s2)cc1
- IC50 (Jurkat): > 10000 nM

SMILES: CCCNNC(=O)CNC(=O)c1ncc(CNc2ccccc2)s1
- IC50 (Jurkat): > 10000 nM

SMILES: CCCNNC(=O)c1ccc(NC(=O)c2ncc(CNc3ccccc3)s2)cc1
- IC50 (Jurkat): 550 nM

SMILES: Nc1ccccc1NC(=O)CCCCCCNC(=O)c1ncc(CNc2ccccc2)s1
- IC50 (Jurkat): 450 nM

SMILES: CCCNNC(=O)CCCCNC(=O)c1ncc(CNc2ccccc2)s1
- IC50 (Jurkat): 1180 nM

SMILES: Nc1ccccc1NC(=O)CC(=O)Nc1ccc(-c2ncc(CNc3ccccc3)s2)cc1
- IC50 (Jurkat): > 1220 nM

These reach a lower IC50 (Jurkat). Values come first.

- IC50 (Jurkat): 170 nM
- IC50 (B16-F10): 7200 nM
- IC50 (HepG2): 1590 nM
- IC50 (Histone deacetylase 1): 340 nM
- IC50 (Histone deacetylase 3): 150 nM
- IC50 [1]: 7720 nM
- IC50 (Histone deacetylase 7): > 10000 nM
- IC50 (Histone deacetylase 8): > 10000 nM
- IC50 (HCT-116): 6580 nM
- IC50 (MCF7): 7880 nM
SMILES: Nc1ccccc1NC(=O)CCCCCC(=O)Nc1ccc(-c2ncc(CNc3ccccc3)s2)cc1

- IC50 (Jurkat): 400 nM
SMILES: Nc1ccccc1NC(=O)c1ncc(CNc2ccccc2)s1

- IC50 (Jurkat): 100 nM
- IC50 (B16-F10): 8940 nM
- IC50 (HepG2): 740 nM
- IC50 (Histone deacetylase 1): 720 nM
- IC50 (Histone deacetylase 3): 140 nM
- IC50 [1]: > 10000 nM
- IC50 (Histone deacetylase 7): > 10000 nM
- IC50 (Histone deacetylase 8): 9080 nM
- IC50 (HCT-116): > 10000 nM
- IC50 (MCF7): 4440 nM
SMILES: Nc1ccccc1NC(=O)/C=C/c1ccc(CNC(=O)c2ccc(-c3ncc(CNc4ccccc4)s3)cc2)cc1

- IC50 (Jurkat): 70 nM
- IC50 (B16-F10): 1600 nM
- IC50 (HepG2): > 10000 nM
- IC50 (Histone deacetylase 1): 640 nM
- IC50 (Histone deacetylase 3): 94 nM
- IC50 [1]: 9100 nM
- IC50 (Histone deacetylase 7): > 10000 nM
- IC50 (Histone deacetylase 8): > 10000 nM
- IC50 (HCT-116): 1050 nM
- IC50 (MCF7): 3190 nM
SMILES: Nc1ccccc1NC(=O)c1ccc(NC(=O)c2ccc(-c3ncc(CNc4ccccc4)s3)cc2)cc1

- IC50 (Jurkat): 390 nM
SMILES: Nc1ccccc1NC(=O)/C=C/c1ccc(CNC(=O)c2ncc(CNc3ccccc3)s2)cc1

- IC50 (Jurkat): 290 nM
SMILES: Nc1ccccc1NC(=O)CCCCCCC(=O)Nc1ccc(-c2ncc(CNc3ccccc3)s2)cc1
